Results taken from publication PMC5107945, “Abscinazole-E3M, a practical inhibitor of abscisic acid 8′-hydroxylase for improving drought tolerance” (Scientific Reports, 2016).

What was measured:
maize stomatal movement = assay: Thermal imaging and transpirational water loss analysis in maize; type: in vivo; conditions: 10 mL of 100 μM sprayed per plant, overnight
Description: The effects of (-)-Abz-[…] were also determined relative to stomatal apertures. Arabidopsis grown in soil pots underwent moderate drought stress under the optimal growth conditions of 22 °C and 60% relative humidity. Under these growth conditions, the leaf surface temperature of the mock-treated controls was 19.5 °C, which was lower than the surrounding atmospheric temperature because of transpirational water loss (Fig. 6a,b)[30]. […] Finally, we examined the effects of (-)-Abz-[…] on drought tolerance under more practical conditions. Three-week-old Arabidopsis were sprayed with an aqueous solution containing 50 μM (-)-Abz-[…]. Water was not supplied for 12 days, and then the plants were rehydrated. […] We also tested the effects of (-)-Abz-[…] on a monocot crop, maize, to evaluate whether (-)-Abz-[…] affected stomatal movement and enhanced ABA response across plant species. […] Thus, the effects of (-)-Abz-[…] were not restricted to the model plant Arabidopsis. Figure 7 Effects of (-)-Abz-[…] on maize. (a) Thermal images of the leaf surface temperatures of (-)-Abz-[…]-treated maize plants. (b) Leaf surface temperatures of (-)-Abz-[…]-treated maize plants. The stomatal conductance (c) and transpiration rate (d) in (-)-Abz-[…]-treated maize at different light intensities. […] Values are means with s.d. (n = 4 for leaf surface temperature, n = 3 for stomatal conductance and transpiration rate). (e) Effects of (-)-Abz-[…] on endogenous ABA levels. (f) Expression levels of ZmLEA, Zm.12309.1.S and ZmCOR410 after the (-)-Abz-[…] treatment. […] After an overnight incubation, the conductance and transpiration rate were analysed using an LI-6400 (Li-Cor Biosciences), and the leaf surface temperatures were measured using a thermal imaging camera ([…], Nippon Avionics Co., Ltd.) in the glass house. Temperatures on the leaf surfaces were analysed by NS9200 software (Nippon Avionics Co., Ltd.).

ABA catabolism = conditions: in vivo
Description: For ABA measurements from Arabidopsis seedlings, samples (1–20 mg dry weight) were ground with beads in 2-mL tubes and homogenised in 1 mL 80% (v/v) MeCN containing 1% AcOH (v/v) with d6-ABA. After extracting for 16 h at 4 °C, samples were centrifuged at 4 °C for 10 min at 3,000× g, and supernatants were collected. Samples were re-extracted twice with 1 mL 80% MeCN at 4 °C for 30 min, and the supernatants were collected after centrifugation. MeCN was removed with nitrogen gas, and the acidified water extracts were loaded into 1cc Oasis HLB cartridges. After washing with water containing 1% AcOH, plant ABA was eluted with 80% MeCN containing 1% AcOH. MeCN was removed, and samples were loaded into 1cc Bond Elute DEA cartridges (Agilent). After washing with MeOH, the ABA was eluted using MeOH containing 1% AcOH. The fractions containing ABA were dried, dissolved in water containing 1% AcOH, and analysed by LC–MS/MS as described previously[35]. The LC conditions for Arabidopsis samples were as follows: solvent A, water containing 0.01% (v/v) acetic acid; solvent B, MeCN containing 0.05% (v/v) acetic acid; and linear gradient, 3 to 40% solvent B over 9 min. Experiments were performed in triplicate, and the results were averaged.
25 µ M (−)-Abz-E3M (n = 3,error bar represents s.d.).Eleven-day-old seedlings of wild-type (Col accession) […]

[1] = target: T1, Arabidopsis recombinant CYP707A3 (ABA 8′-hydroxylase) (Arabidopsis thaliana, UniProt Q9FH76); assay: CYP707A3 inhibition assay (decrease of enzymatic product PA); type: biochemical; conditions: Arabidopsis recombinant CYP707A3 expressed in E. coli
T1 construct: made in house; host or cells: Escherichia coli (microsomal/membrane fraction)
T1 sequence (Q9FH76 1-463): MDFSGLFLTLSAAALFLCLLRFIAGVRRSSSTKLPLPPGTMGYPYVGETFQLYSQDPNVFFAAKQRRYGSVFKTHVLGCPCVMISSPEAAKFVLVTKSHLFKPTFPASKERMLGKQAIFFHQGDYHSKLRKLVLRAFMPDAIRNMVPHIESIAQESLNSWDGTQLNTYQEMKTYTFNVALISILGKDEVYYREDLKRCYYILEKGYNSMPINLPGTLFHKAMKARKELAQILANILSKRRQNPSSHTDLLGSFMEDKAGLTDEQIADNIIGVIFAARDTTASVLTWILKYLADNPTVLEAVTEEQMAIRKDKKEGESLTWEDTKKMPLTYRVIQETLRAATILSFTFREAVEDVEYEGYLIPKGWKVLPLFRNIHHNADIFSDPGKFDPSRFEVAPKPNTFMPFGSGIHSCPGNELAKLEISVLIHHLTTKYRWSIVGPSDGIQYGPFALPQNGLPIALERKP
Description: The inhibitory activities of Abz-T compounds against ABA 8′-hydroxylase were examined using recombinant Arabidopsis CYP707A3 co-expressed with Arabidopsis P-450 reductase (ATR1) in Escherichia coli[22]. The activity levels were evaluated based on the decrease in the amount of the enzymatic product, PA.
Reactions were initiated by adding NADPH, stopped by the addition of 25 μL of 1 M NaOH and then acidified with 50 μL of 1 M HCl. Reaction products were extracted by loading the mixture onto an Oasis HLB cartridge (1 mL, 30 mg; Waters Corp., Milford, MA, USA) and were washed with 1 mL of 10% MeOH in H2O (v/v) containing 1% acetic acid (AcOH, v/v). The enzyme products were then eluted with 1 mL of MeOH containing 1% AcOH, and the eluate was concentrated in vacuo. Each dried sample was then dissolved in 50 μL of MeOH, and a 20-μL volume was subjected to HPLC (Prominence; Shimadzu Corp., Kyoto, Japan). HPLC conditions were as follows: the octadecylsilyl column was composed of Hydrosphere C18 (150 × 6.0 mm, YMC Co., Ltd., Kyoto, Japan), and the solvent comprised 17% acetonitrile (MeCN) in H2O containing 0.05% AcOH (v/v). The flow rate was 1.0 mL min^−1, and detection was at 254 nm. Enzyme activity was evaluated by determining the amount of PA in control experiments prior to taking each set of measurements. The inhibition constants were determined using the Enzyme Kinetics module of the SigmaPlot 10 software (Systat Software, Inc., San Jose, CA, USA) after determining the inhibition mode by plotting the reaction velocity in the presence and absence of the inhibitor on a double-reciprocal plot. The inhibition ratio was defined as [(A − B)/A] × 100, where A = the amount of PA when the inhibitor was absent from the reaction mixture (control), and B = the amount of PA when the inhibitor was present. All of the tests were conducted at least three times.

Q: What does the source list for abscinazole-E3M [(−)-6]?
A: Leaf surface temperature (maize stomatal movement): increased the leaf surface temperature; Stomatal conductance (maize stomatal movement): suppressed; Transpiration rate (maize stomatal movement): suppressed; ABA catabolism / ABA accumulation in plants (ABA catabolism): inhibited ABA catabolism and increased ABA accumulation in plants; IC50 ([1]; 5 μM ABA as substrate, read-out: CYP707A IC50): 64 nM; Ki ([1]; ABA 1–64 μM, read-out: CYP707A KI): 35 nM
